Here are results for 25 molecules from patent US20110038885A1, “CHEMOKINE ANALOGS” (priority 2007, published 2011).

Bridge positions count the residues as written; N and C are the ends. Square brackets hold non-standard residues; d marks the D form. Peptide text beside a SMILES is read from it. * marks the point of attachment. Hydrocinnamoyl(4-Me) = Cc1ccc(CCC(=O)*)cc1; X3 = O=C(/C=C/c1ccc(Cl)cc1)*; Lauroyl = CCCCCCCCCCCC(=O)*; Decanoyl = CCCCCCCCCC(=O)*; Octanoyl = CCCCCCCC(=O)*; X5 = O=C(/C=C/c1ccccc1)*; Hexanoyl = CCCCCC(=O)*; Aoc = NCCCCCCCC(=O)O; Ahp = NCCCCCCC(=O)O; Ahx = NCCCCCC(=O)O; Ava = NCCCCC(=O)O; βAla = NCCC(=O)O

For this test, the system named is MCP-1. Put plainly: In vitro chemotaxis (trans-well migration) v MCP-1. In kind it is cell-based, human. The protocol: To determine whether an agent inhibits a chemokine-induced activity, such as macrophage recruitment, varying amounts of the agent are mixed with cells in the presence of a known chemoattractant. For example, a range of known concentrations of an agent, e.g., a chemokine peptide, is incubated with a defined number (e.g., 10^4-10^6) of human THP-1 monocyte cells in individual wells of the top compartment of a trans-well plate. Chemokine, at a concentration known to cause significant migration of THP-1 cells in the trans-well migration assay, is placed in the lower compartment of a trans-well plate. Cells are then incubated at 37° C. for a period sufficient to allow migration, e.g., 4 hours. After incubation, the cells are gently removed from the top of the filter with a pipette, 20 μl of 20 mM EDTA in simple PBS is added into each top well, and incubated for 20 minutes at 4° C. The filter is carefully flushed with media using a gentle flow, and removed. A standard curve consisting of a two-fold dilution series of THP-1 cells (in 29 μl) is placed to accurately quantify the number of cells that have migrated. Migrated cells are stained with 3 μl of MTT stock dye solution which is added directly into each well (5 mg/ml in RPMI-1640 without phenol red) (Sigma Chemical Co., St. Louis, Mo., USA) and incubated at 37° C. for 4 hours. The media is carefully aspirated from each well, and the converted dye is solubilized by 20 μl of DMSO. Absorbance of converted dye is measured at a wavelength of 595 nm using an ELISA plate reader. The number of migrated cells in each well is then determined by interpolation of the standard curve (see also Imai et al., J. Biol. Chem., 272:15036, 1997). Any method suitable for counting cells can be used, for example, counting with a hemocytometer, incubation of the cells with MTT (see above), or FACS analysis. A negative control assay is also performed, using TGFβ or another non-chemokine chemoattractant (e.g., IL1β or TNFα). To assess whether the agent is cytotoxic, the same concentrations of agent are incubated with THP-1 cells. Agents which 1) are not cytotoxic at levels which inhibit migration, 2) are ineffective at inhibiting the negative control-induced migration, and 3) reduce or inhibit chemokine-induced THP-1 migration, are agents which fall within the scope of the invention.
The molecule `CC[C@H](C)[C@@H]1NC(=O)[C@H](Cc2c[nH]c3ccccc23)NC(=O)[C@H](CCCCN)NC(=O)[C@@H](NC(=O)/C=C/c2ccccc2)CSSC[C@@H](C(N)=O)NC(=O)[C@H](CCC(N)=O)NC1=O` [Example 72, trans-Ciimamoyl-c(Cys-Lys-Trp-Ile-Gln-Cys)-NH2] (X5-CKWIQC-NH2; disulfide 1-6) returned a 50% effective concentration (EC50) of 0.008 µM.

Consider `CC[C@H](C)[C@@H]1NC(=O)[C@H](Cc2c[nH]c3ccccc23)NC(=O)[C@H](CCCCN)NC(=O)[C@@H](NC(=O)/C=C/c2ccc(Cl)cc2)CSSC[C@@H](C(N)=O)NC(=O)[C@H](CCC(N)=O)NC1=O` [Example 73, 4-Chlorocinnamoyl-c(Cys-Lys-Trp-Ile-Gln-Cys)-NH2] (X3-CKWIQC-NH2; disulfide 1-6), for which the midpoint of the response, the EC50, lay at 0.01 µM.

`CC[C@H](C)[C@@H]1NC(=O)[C@H](Cc2c[nH]c3ccccc23)NC(=O)[C@H](CCCCN)NC(=O)[C@@H](NC(C)=O)CSSC[C@H](C(N)=O)NC(=O)[C@H](CCC(N)=O)NC1=O` [Example 74, Ac-c(Cys-Lys-Trp-Ile-Gln-D-Cys)-NH2] (Ac-CKWIQ[dC]-NH2; disulfide 1-6) had an EC50 of 0.007 µM.

Molecule `CC[C@H](C)[C@@H]1NC(=O)[C@H](Cc2c[nH]c3ccccc23)NC(=O)[C@H](CCCCN)NC(=O)[C@@H](NC(C)=O)CSSC[C@@H](C(N)=O)NC(=O)[C@@H](CCC(N)=O)NC1=O` [Example 75, Ac-c(Cys-Lys-Trp-Ile-D-Gln-Cys)-NH2] (Ac-CKWI[dQ]C-NH2; disulfide 1-6) registered an EC50 of 0.025 µM.

`CC[C@@H](C)[C@H]1NC(=O)[C@H](Cc2c[nH]c3ccccc23)NC(=O)[C@H](CCCCN)NC(=O)[C@@H](NC(C)=O)CSSC[C@@H](C(N)=O)NC(=O)[C@H](CCC(N)=O)NC1=O` [Example 76, Ac-c(Cys-Lys-Trp-D-Ile-Gln-Cys)-NH2] (Ac-CKW[dI]QC-NH2; disulfide 1-6) had an EC50 of 0.02 µM.

`CC[C@H](C)[C@@H]1NC(=O)[C@@H](Cc2c[nH]c3ccccc23)NC(=O)[C@H](CCCCN)NC(=O)[C@@H](NC(C)=O)CSSC[C@@H](C(N)=O)NC(=O)[C@H](CCC(N)=O)NC1=O` [Example 77, Ac-c(Cys-Lys-D-Trp-Ile-Gln-Cys)-NH2] (Ac-CK[dW]IQC-NH2; disulfide 1-6) gave an EC50 of 0.02 µM.

Molecule `CC[C@H](C)[C@@H]1NC(=O)[C@H](Cc2c[nH]c3ccccc23)NC(=O)[C@@H](CCCCN)NC(=O)[C@@H](NC(C)=O)CSSC[C@@H](C(N)=O)NC(=O)[C@H](CCC(N)=O)NC1=O` [Example 78, Ac-c(Cys-D-Lys-Trp-Ile-Gln-Cys)-NH2] (Ac-C[dK]WIQC-NH2; disulfide 1-6) came in with an EC50 of 0.03 µM.

The molecule `CC[C@H](C)[C@@H]1NC(=O)[C@H](Cc2c[nH]c3ccccc23)NC(=O)[C@H](CCCCN)NC(=O)[C@H](NC(C)=O)CSSC[C@@H](C(N)=O)NC(=O)[C@H](CCC(N)=O)NC1=O` [Example 79, Ac-c(D-Cys-Lys-Trp-Ile-Gln-Cys)-NH2] (Ac-[dC]KWIQC-NH2; disulfide 1-6) returned an EC50 of 0.06 µM.

`CC[C@H](C)[C@@H]1NC(=O)[C@H](Cc2c[nH]c3ccccc23)NC(=O)[C@H](CCCCN)NC(=O)[C@@H](NC(=O)CCc2ccc(C)cc2)CSSC[C@@H](C(N)=O)NC(=O)[C@H](CCC(N)=O)NC1=O` [Example 80, (Des-amino-4-methyl)Phe-c(Cys-Lys-Trp-Ile-Gln-Cys)-NH2] ({Hydrocinnamoyl(4-Me)}-CKWIQC-NH2; disulfide 1-6): the EC50 is 0.01 µM.

`CCCCCC(=O)N[C@H]1CSSC[C@@H](C(N)=O)NC(=O)[C@H](CCC(N)=O)NC(=O)[C@H]([C@@H](C)CC)NC(=O)[C@H](Cc2c[nH]c3ccccc23)NC(=O)[C@H](CCCCN)NC1=O` [Example 81, n-Hexanoyl-c(Cys-Lys-Trp-Ile-Gln-Cys)-NH2] (Hexanoyl-CKWIQC-NH2; disulfide 1-6): a half-maximal response (EC50) required 0.005 µM.

For the molecule `CCCCCCCC(=O)N[C@H]1CSSC[C@@H](C(N)=O)NC(=O)[C@H](CCC(N)=O)NC(=O)[C@H]([C@@H](C)CC)NC(=O)[C@H](Cc2c[nH]c3ccccc23)NC(=O)[C@H](CCCCN)NC1=O` [Example 82, Octanoyl-c(Cys-Lys-Trp-Ile-Gln-Cys)-NH2] (Octanoyl-CKWIQC-NH2; disulfide 1-6), a half-maximal effect (EC50) was put at 0.025 µM.

Molecule `CCCCCCCCCC(=O)N[C@H]1CSSC[C@@H](C(N)=O)NC(=O)[C@H](CCC(N)=O)NC(=O)[C@H]([C@@H](C)CC)NC(=O)[C@H](Cc2c[nH]c3ccccc23)NC(=O)[C@H](CCCCN)NC1=O` [Example 83, Decanoyl-c(Cys-Lys-Trp-Ile-Gln-Cys)-NH2] (Decanoyl-CKWIQC-NH2; disulfide 1-6) returned a concentration giving a half-maximal response (EC50) of 0.02 µM.

For the molecule `CCCCCCCCCCCC(=O)N[C@H]1CSSC[C@@H](C(N)=O)NC(=O)[C@H](CCC(N)=O)NC(=O)[C@H]([C@@H](C)CC)NC(=O)[C@H](Cc2c[nH]c3ccccc23)NC(=O)[C@H](CCCCN)NC1=O` [Example 84, Dodecanoyl-c(Cys-Lys-Trp-Ile-Gln-Cys)-NH2] (Lauroyl-CKWIQC-NH2; disulfide 1-6), a half-maximal response (EC50) required 0.015 µM.

In turn, `CC[C@H](C)[C@@H]1NC(=O)[C@@H](NC(=O)[C@@H](N)Cc2c[nH]c3ccccc23)CSSC[C@@H](C(N)=O)NC(=O)[C@H](CCC(N)=O)NC1=O` [Example 85, Trp-c(Cys-Ile-Gln-Cys)-NH2] (H-WCIQC-NH2; disulfide 2-5) gave an EC50 of 0.05 µM.

Take `CC[C@H](C)[C@@H]1NC(=O)[C@@H](N)CSSC[C@@H](C(N)=O)NC(=O)[C@H](CCC(N)=O)NC1=O` [Example 86, c(Cys-Ile-Gln-Cys)-NH2] (H-CIQC-NH2; disulfide 1-4): the half-maximal effective concentration (EC50) amounted to 0.0075 µM.

`CC[C@H](C)[C@@H]1NC(=O)[C@H](Cc2c[nH]c3ccccc23)NC(=O)[C@H](CCCCN)NC(=O)CNC(=O)C[C@@H](C(N)=O)NC(=O)[C@H](CCC(N)=O)NC1=O` [Example 87, c(Gly-Lys-Trp-Ile-Gln-Asp)-NH2] (GKWIQD-NH2; lactam N-6) displayed a concentration for a half-maximal effect (EC50) of 0.015 µM.

Consider `CC[C@H](C)[C@@H]1NC(=O)[C@H](Cc2c[nH]c3ccccc23)NC(=O)[C@H](CCCCN)NC(=O)CNC(=O)CC[C@@H](C(N)=O)NC(=O)[C@H](CCC(N)=O)NC1=O` [Example 88, c(Gly-Lys-Trp-Ile-Gln-Glu)-NH2] (GKWIQE-NH2; lactam N-6), for which the midpoint of the response, the EC50, lay at 0.009 µM.

As for `CC[C@H](C)[C@@H]1NC(=O)[C@H](Cc2c[nH]c3ccccc23)NC(=O)[C@H](CCCCN)NC(=O)CCNC(=O)CC[C@@H](C(N)=O)NC(=O)[C@H](CCC(N)=O)NC1=O` [Example 89, c((βAla-Lys-Trp-Ile-Gln-Glu)-NH2] ([βAla]KWIQE-NH2; lactam N-6), the 50% effective concentration (EC50) stood at 0.02 µM.

Molecule `CC[C@H](C)[C@@H]1NC(=O)[C@H](Cc2c[nH]c3ccccc23)NC(=O)[C@H](CCCCN)NC(=O)CCCCNC(=O)C[C@@H](C(N)=O)NC(=O)[C@H](CCC(N)=O)NC1=O` [Example 90, c(Apn-Lys-Trp-Ile-Gln-Asp)-NH2] ([Ava]KWIQD-NH2; lactam N-6) gave an EC50 of 0.007 µM.

Turning to `CC[C@H](C)[C@@H]1NC(=O)[C@H](Cc2c[nH]c3ccccc23)NC(=O)[C@H](CCCCN)NC(=O)CCCCNC(=O)CC[C@@H](C(N)=O)NC(=O)[C@H](CCC(N)=O)NC1=O` [Example 91, c(Apn-Lys-Trp-Ile-Gln-Glu)-NH2] ([Ava]KWIQE-NH2; lactam N-6), the EC50 was determined as 0.009 µM.

Turning to `CC[C@H](C)[C@@H]1NC(=O)[C@H](Cc2c[nH]c3ccccc23)NC(=O)[C@H](CCCCN)NC(=O)CCCCCNC(=O)CC[C@@H](C(N)=O)NC(=O)[C@H](CCC(N)=O)NC1=O` [Example 92, c(Ahx-Lys-Trp-Ile-Gln-Glu)-NH2] ([Ahx]KWIQE-NH2; lactam N-6), the EC50 turned out to be 0.005 µM.

`CC[C@H](C)[C@@H]1NC(=O)[C@H](Cc2c[nH]c3ccccc23)NC(=O)[C@H](CCCCN)NC(=O)CCCCCCNC(=O)C[C@@H](C(N)=O)NC(=O)[C@H](CCC(N)=O)NC1=O` [Example 93, c(Aha-Lys-Trp-Ile-Gln-Asp)-NH2] ([Ahp]KWIQD-NH2; lactam N-6) registered a concentration for a half-maximal effect (EC50) of 0.008 µM.

`CC[C@H](C)[C@@H]1NC(=O)[C@H](Cc2c[nH]c3ccccc23)NC(=O)[C@H](CCCCN)NC(=O)CCCCCCNC(=O)CC[C@@H](C(N)=O)NC(=O)[C@H](CCC(N)=O)NC1=O` [Example 94, c(Aha-Lys-Trp-Ile-Gln-Glu)-NH2] ([Ahp]KWIQE-NH2; lactam N-6) returned a half-maximal effective concentration (EC50) of 0.01 µM.

Take `CC[C@H](C)[C@@H]1NC(=O)[C@H](Cc2c[nH]c3ccccc23)NC(=O)[C@H](CCCCN)NC(=O)CCCCCCCNC(=O)C[C@@H](C(N)=O)NC(=O)[C@H](CCC(N)=O)NC1=O` [Example 95, c(Aoc-Lys-Trp-Ile-Gln-Asp)-NH2] ([Aoc]KWIQD-NH2; lactam N-6): the midpoint of the response, the EC50, lay at 0.02 µM.

For `CC[C@H](C)[C@@H]1NC(=O)[C@H](Cc2c[nH]c3ccccc23)NC(=O)[C@H](CCCCN)NC(=O)CCCCCCCNC(=O)CC[C@@H](C(N)=O)NC(=O)[C@H](CCC(N)=O)NC1=O` [Example 96, c(Aoc-Lys-Trp-Ile-Gln-Glu)-NH2] ([Aoc]KWIQE-NH2; lactam N-6), the response was half-maximal at 0.004 µM (EC50).
